Reference: the supplement of paper PMC10307832

Assays:
Test in all cases: relative viability (nuclei count vs DMSO), 5 days (fraction); higher = more cells survive
BGJ398 + OSI-027 = compound: CCN1CCN(c2ccc(Nc3cc(N(C)C(=O)Nc4c(Cl)c(OC)cc(OC)c4Cl)ncn3)cc2)CC1 [BGJ398] + COc1cccc2cc(-c3nc([C@H]4CC[C@H](C(=O)O)CC4)n4ncnc(N)c34)[nH]c12 [OSI-027] (partner 0.5 µM)
Summary of the method: (§1)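 Dosing by pin tool came one day after lung cancer cell lines were seeded in 1536-well plates, using either one drug or a fixed anchor-drug dose plus five library-drug doses (not always all listed) in √10 steps. After 5 days, nuclei were counted on 4× images. Relative viability is treated-well nuclei count divided by vehicle-well nuclei count, and values are medians of duplicate plates.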

BGJ398 + Alpelisib = compound: CCN1CCN(c2ccc(Nc3cc(N(C)C(=O)Nc4c(Cl)c(OC)cc(OC)c4Cl)ncn3)cc2)CC1 [BGJ398] + Cc1nc(NC(=O)N2CCC[C@H]2C(N)=O)sc1-c1ccnc(C(C)(C)C(F)(F)F)c1 [Alpelisib] (partner 2 µM)
Summary of the method: as §1

BGJ398 + Vorinostat = compound: CCN1CCN(c2ccc(Nc3cc(N(C)C(=O)Nc4c(Cl)c(OC)cc(OC)c4Cl)ncn3)cc2)CC1 [BGJ398] + O=C(CCCCCCC(=O)Nc1ccccc1)NO [Vorinostat] (partner 1 µM)
Summary of the method: as §1

BGJ398 + Linsitinib = compound: CCN1CCN(c2ccc(Nc3cc(N(C)C(=O)Nc4c(Cl)c(OC)cc(OC)c4Cl)ncn3)cc2)CC1 [BGJ398] + C[C@]1(O)C[C@@H](c2nc(-c3ccc4ccc(-c5ccccc5)nc4c3)c3c(N)nccn32)C1 [Linsitinib] (partner 1 µM)
Summary of the method: as §1

Row | Cell Line | relative viability (BGJ398 + OSI-027; first compound 0.01 µM) | relative viability (BGJ398 + OSI-027; first compound 0.03162 µM) | relative viability (BGJ398 + OSI-027; first compound 0.1 µM) | relative viability (BGJ398 + OSI-027; first compound 0.3162 µM) | relative viability (BGJ398 + OSI-027; first compound 1 µM) | relative viability (BGJ398 + Alpelisib; first compound 0.01 µM) | relative viability (BGJ398 + Alpelisib; first compound 0.03162 µM) | relative viability (BGJ398 + Alpelisib; first compound 0.1 µM) | relative viability (BGJ398 + Alpelisib; first compound 0.3162 µM) | relative viability (BGJ398 + Alpelisib; first compound 1 µM) | relative viability (BGJ398 + Vorinostat; first compound 0.01 µM) | relative viability (BGJ398 + Vorinostat; first compound 0.03162 µM) | relative viability (BGJ398 + Vorinostat; first compound 0.1 µM) | relative viability (BGJ398 + Vorinostat; first compound 0.3162 µM) | relative viability (BGJ398 + Vorinostat; first compound 1 µM) | relative viability (BGJ398 + Linsitinib; first compound 0.01 µM) | relative viability (BGJ398 + Linsitinib; first compound 0.03162 µM) | relative viability (BGJ398 + Linsitinib; first compound 0.1 µM) | relative viability (BGJ398 + Linsitinib; first compound 0.3162 µM) | relative viability (BGJ398 + Linsitinib; first compound 1 µM)
1 | NCI-H322M | 0.531 | 0.542 | 0.627 | 0.495 | 0.501 | 0.772 | 0.741 | 0.851 | 0.761 | 0.813 | 1.04 | 0.853 | 0.942 | 0.892 | 0.876 | 0.863 | 0.788 | 0.978 | 0.935 | 0.999
2 | NCI-H838 | 0.297 | 0.357 | 0.376 | 0.338 | 0.294 | 0.84 | 0.955 | 0.968 | 0.895 | 0.732 | 0.664 | 0.697 | 0.695 | 0.633 | 0.629 | 0.94 | 0.979 | 0.927 | 0.919 | 0.716
3 | NCI-H2342 | 0.694 | 0.628 | 0.629 | 0.674 | 0.622 |  |  |  |  |  | 0.845 | 0.703 | 0.959 | 0.711 | 0.801 |  |  |  |  | 
4 | NCI-H1792 | 0.684 | 0.731 | 0.762 | 0.581 | 0.416 | 0.634 | 0.755 | 0.898 | 0.706 | 0.456 |  |  |  |  |  | 0.482 | 0.511 | 0.551 | 0.63 | 0.287
5 | ChaGo-K-1 | 0.512 | 0.491 | 0.567 | 0.548 | 0.435 |  |  |  |  |  | 0.67 | 0.775 | 0.706 | 0.802 | 0.794 |  |  |  |  | 
6 | A549 |  |  |  |  |  | 0.782 | 0.864 | 0.847 | 0.635 | 0.872 |  |  |  |  |  | 0.637 | 0.53 | 0.857 | 0.569 | 0.658
7 | NCI-H1563 | 0.703 | 0.788 | 0.785 | 0.672 | 0.665 | 0.858 | 0.96 | 0.802 | 0.778 | 0.677 |  |  |  |  |  | 1.17 | 1.18 | 0.947 | 0.792 | 0.724
8 | SW 900 | 0.602 | 0.604 | 0.545 | 0.368 | 0.358 |  |  |  |  |  | 0.534 | 0.425 | 0.562 | 0.261 | 0.24 |  |  |  |  | 
9 | IA-LM |  |  |  |  |  | 0.541 | 0.898 | 0.733 | 0.625 | 0.702 | 0.797 | 0.806 | 1.09 | 0.972 | 0.894 | 0.532 | 0.499 | 0.501 | 0.496 | 0.481
10 | NCI-H1703 |  |  |  |  |  | 0.331 | 0.394 | 0.348 | 0.332 | 0.359 |  |  |  |  |  | 0.811 | 0.497 | 0.699 | 0.569 | 0.705
11 | NCI-H1648 | 0.245 | 0.292 | 0.246 | 0.26 | 0.235 |  |  |  |  |  | 1.6 |  | 0.363 | 0.46 | 0.369 |  |  |  |  | 
